Values quoted from earlier work, collected in publication PMC7395068, “The evolution of strategies to minimise the risk of human drug-induced liver injury (DILI) in drug discovery and development” (Archives of Toxicology, 2020).
Structures can show the parent of a compound that is named as a salt. Where two headings read alike, the source gives them in different places.

Legend:
[1] = tested on: THLE or HepG2 cells, isolated mitochondria, BSEP; conditions: cited from earlier work
[2] = cited from earlier work
human hepatocytes = conditions: cited from earlier work; for Structural based (HCI), In vitro Assay: human hepatocyte imaging
[3] = cited from earlier work; remark: listed apart in the source
[4] = tested on: primary human hepatocytes, NIH3T3 fibroblasts, BSEP, CYP3A4; conditions: In vitro Assay; ref Schadt 2015; cited from earlier work

Compound | Partition Hybrid HRM Score ([1]; In vitro Assay, ref Aleo 2019) | Ro2 Hybrid HRM Score ([1]; In vitro Assay, ref Aleo 2019) | DILI +VE (5-8), DILI -VE (-4) ([2]; ref Chen 2016) | DILI severity category ([2]; ref Chen 2016) | In vivo DILI ([3]; ref Aleo 2019) | further results
C[C@]12CC[C@@H]3c4ccc(O)cc4CC[C@H]3[C@@H]1CC[C@@H]2O [estradiol] |  |  |  |  |  | Partition Hybrid HRM Score [1]: -VE; Ro2 Hybrid HRM Score [1]: -VE; DILI +VE (5-8), DILI -VE (-4) ([2]; in vivo): +VE; DILI severity category ([2]; in vivo): vLess-DILI-Concern
C[C@H](CCC(=O)O)[C@H]1CC[C@H]2[C@@H]3CC[C@@H]4C[C@H](O)CC[C@]4(C)[C@H]3CC[C@]12C [lithocholic acid] |  |  |  |  |  | Structural based (HCI), In vitro Assay (human hepatocytes; ref Xu 2008): -VE
NC[C@H]1O[C@H](O[C@H]2[C@H](O)[C@@H](O[C@H]3O[C@H](CO)[C@@H](O)[C@H](N)[C@H]3O)[C@H](N)C[C@@H]2N)[C@H](O)[C@@H](O)[C@@H]1O [kanamycin sulfate] |  |  |  |  |  | Structural based (HCI) (human hepatocytes; In vitro Assay, ref Xu 2008): -VE
CCOC(=O)[C@H](CCc1ccccc1)N[C@H]1CCc2ccccc2N(CC(=O)O)C1=O [benazepril] |  |  |  |  |  | Structural based (HCI) (human hepatocytes; In vitro Assay, ref Xu 2008): -VE
Cn1c(=O)c2[nH]c(Br)nc2n(C)c1=O [pamabrom] | -VE | -VE | -VE | vNo-DILI-Concern | -VE | 
CC1(C)S[C@@H]2[C@H](NC(=O)Cc3ccccc3)C(=O)N2[C@H]1C(=O)O [penicillin g] |  |  |  |  |  | Structural based (HCI) (human hepatocytes; In vitro Assay, ref Xu 2008): -VE
NCCC(O)(P(=O)(O)O)P(=O)(O)O [pamidronate] |  |  |  |  |  | Structural based (HCI) (human hepatocytes; In vitro Assay, ref Xu 2008): -VE
CC[N+](CC)(CC)CCOc1cccc(OCC[N+](CC)(CC)CC)c1OCC[N+](CC)(CC)CC [gallamine triethiodide] |  |  |  |  |  | Structural based (HCI), In vitro Assay (human hepatocytes; ref Xu 2008): -VE
CC[N+](C)(C)c1cccc(O)c1 [edrophonium chloride] |  |  |  |  |  | Structural based (HCI) (human hepatocytes): -VE
NC(N)=Nc1nc(CSCCN/C=N/S(=O)(=O)c2ccc(Br)cc2)cs1 [ebrotidine] | +VE | +VE | +VE | vMost-DILI-Concern | +VE | 
Nc1ccc(C(=O)O)c(O)c1 [4-aminosalicylic acid] |  |  |  |  |  | Partition Hybrid HRM Score [1]: -VE; Ro2 Hybrid HRM Score [1]: -VE; DILI +VE (5-8), DILI -VE (-4) ([2]; in vivo): +VE; DILI severity category ([2]; in vivo): vMost-DILI-Concern
C=C(CC)C(=O)c1ccc(OCC(=O)O)c(Cl)c1Cl [ethacrynic acid] |  |  |  |  |  | Partition Hybrid HRM Score, In vitro Assay ([1]; Partition hybrid, ref Aleo 2019): +VE; Ro2 Hybrid HRM Score, In vitro Assay ([1]; Rule of Two hybrid, ref Aleo 2019): +VE
COCCCC/C(=N\OCCN)c1ccc(C(F)(F)F)cc1 [fluvoxamine] |  |  |  |  |  | Structural based (HCI) (human hepatocytes): -VE
Nc1nc(=O)[nH]cc1F [flucytosine] |  |  |  |  |  | Structural based (HCI) (human hepatocytes; In vitro Assay, ref Xu 2008): +VE
CCOc1ccc(NC(C)=O)cc1 [phenacetin] |  |  |  |  |  | Structural based (HCI) (human hepatocytes; In vitro Assay, ref Xu 2008): +VE
COc1cccc(OC)c1C(=O)N[C@@H]1C(=O)N2[C@@H]1SC(C)(C)[C@@H]2C(=O)O [methicillin sodium] |  |  |  |  |  | Structural based (HCI), In vitro Assay (human hepatocytes; ref Xu 2008): -VE
CCn1cc(C(=O)O)c(=O)c2cc(F)c(N3CCNC(C)C3)c(F)c21 (centres unmarked) [lomefloxacin] |  |  |  |  |  | Structural based (HCI) (human hepatocytes; In vitro Assay, ref Xu 2008): -VE
Cc1nc(-c2ccc(OCC(C)C)c(C#N)c2)sc1C(=O)O [febuxostat] | +VE | +VE | +VE | vMost-DILI-Concern | +VE | 
CCOc1ccccc1OCCN[C@H](C)Cc1ccc(OC)c(S(N)(=O)=O)c1 [tamsulosin] | -VE | -VE | +VE | vLess-DILI-Concern | +VE | Cellular toxicity (3T3 cells) [4]: -VE; Combined Assay [4]: -VE; GSH adduct HML [4]: -VE; Hepatocyte cellular toxicity [4]: -VE; MitoTox 3T3 [4]: -VE; TDI CYP3A4 [4]: -VE; hBSEP inhibition [4]: -VE; In vivo DILI ([3]; ref Schadt 2015): -VE
COc1cc(NS(C)(=O)=O)ccc1Nc1c2ccccc2nc2ccccc12 [amsacrine] |  |  |  |  |  | Structural based (HCI) (human hepatocytes; In vitro Assay, ref Xu 2008): +VE
CC(C)(C)NC(=O)[C@@H]1CN(Cc2cccnc2)CCN1C[C@@H](O)C[C@@H](Cc1ccccc1)C(=O)N[C@H]1c2ccccc2C[C@H]1O [indinavir] |  |  |  |  |  | Partition Hybrid HRM Score [1]: +VE; Ro2 Hybrid HRM Score [1]: +VE
CCOc1nc2cccc(C(=O)O)c2n1Cc1ccc(-c2ccccc2-c2nnn[nH]2)cc1 [candesartan] | -VE | -VE | +VE | vLess-DILI-Concern | +VE | 
Cc1ccc(/C(=C\CN2CCCC2)c2ccccn2)cc1 [triprolidine] | -VE | -VE |  |  |  | 

Compound | Partition Hybrid HRM Score ([1]; In vitro Assay, ref Aleo 2019) | Ro2 Hybrid HRM Score ([1]; In vitro Assay, ref Aleo 2019) | DILI +VE (5-8), DILI -VE (-4) ([2]; ref Chen 2016) | DILI severity category ([2]; ref Chen 2016) | In vivo DILI ([3]; ref Aleo 2019) | further results
CC[C@@H](CO)NC(=O)[C@@H]1C=C2c3cccc4[nH]cc(c34)C[C@H]2N(C)C1 [methylergonovine maleate] |  |  |  |  |  | Structural based (HCI), In vitro Assay (human hepatocytes; ref Xu 2008): -VE
CC(C)(CO)[C@@H](O)C(=O)NCCC(=O)O [calcium pantothenate] |  |  |  |  |  | Structural based (HCI) (human hepatocytes; In vitro Assay, ref Xu 2008): -VE
CC(=O)Nc1nnc(S(N)(=O)=O)s1 [acetazolamide] |  |  |  |  |  | Structural based (HCI) (human hepatocytes; In vitro Assay, ref Xu 2008): -VE
CC(C(=O)O)c1ccc(N2CC=CC2)c(Cl)c1 (centres unmarked) [pirprofen] | +VE | -VE | +VE | vMost-DILI-Concern | +VE | In vivo DILI ([3]; […]): +VE
N.N.[Cl][Pt][Cl] [cisplatin] |  | -VE |  |  |  | 
O=C(Nc1cccc2c(=O)cc(-c3nnn[nH]3)oc12)c1ccc(OCCCCc2ccccc2)cc1 [Pranlukast] | +VE | +VE |  |  | +VE | 
Cc1nc(C)c2c(n1)N(Cc1ccc(-c3ccccc3-c3nnn[nH]3)cc1)C(=O)CC2 [tasosartan] | +VE | +VE |  |  |  | Cellular toxicity (3T3 cells) [4]: -VE; Combined Assay [4]: +VE; GSH adduct HML [4]: -VE; Hepatocyte cellular toxicity [4]: +VE; MitoTox 3T3 [4]: -VE; TDI CYP3A4 [4]: -VE; hBSEP inhibition [4]: +VE
Cc1nc2n(c(=O)c1CCN1CCC(c3noc4cc(F)ccc34)CC1)CCCC2O (centres unmarked) [paliperidone] | -VE | -VE | -VE | vNo-DILI-Concern | -VE | 
CN1C[C@H](C(=O)N[C@]2(C)O[C@@]3(O)[C@@H]4CCCN4C(=O)[C@H](Cc4ccccc4)N3C2=O)C[C@@H]2c3cccc4[nH]cc(c34)C[C@H]21 [dihydroergotamine] |  |  | -VE | vNo-DILI-Concern | -VE | Partition Hybrid HRM Score [1]: -VE; Ro2 Hybrid HRM Score [1]: -VE
CN1CCC[C@@H]1CCO[C@](C)(c1ccccc1)c1ccc(Cl)cc1 [clemastine] | -VE | -VE | -VE | vNo-DILI-Concern | -VE | In vivo DILI ([3]; […]): -VE
CCCNS(=O)(=O)Nc1ncnc(OCCOc2ncc(Br)cn2)c1-c1ccc(Br)cc1 [macitentan] | +VE | +VE |  |  | +VE | 
O=C(CCCN1CCC(O)(c2ccc(Cl)cc2)CC1)c1ccc(F)cc1 [haloperidol] | -VE | -VE |  |  |  | 
CCc1oc2ccccc2c1C(=O)c1ccc(O)cc1 [benzarone] | +VE | +VE | +VE | vMost-DILI-Concern | +VE | 
O=C(COc1ccc(Cl)cc1)N1CCN(Cc2ccc3c(c2)OCO3)CC1 [fipexide] | +VE | +VE | +VE | vMost-DILI-Concern | +VE | 
Cc1ccc(Nc2nccc(N(C)c3ccc4c(C)n(C)nc4c3)n2)cc1S(N)(=O)=O [pazopanib] | +VE | +VE |  |  |  | 
COC(=O)CCc1ccc(OCC(O)CNC(C)C)cc1 (centres unmarked) [esmolol] | +VE | -VE | -VE | vNo-DILI-Concern | -VE | 
OC(CCN1CCCCC1)(c1ccccc1)C1CCCCC1 (centres unmarked) [trihexyphenidyl] | -VE | -VE | -VE | vNo-DILI-Concern | -VE | 
CCc1oc2ccccc2c1C(=O)c1cc(I)c(O)c(I)c1 [benziodarone] | +VE | +VE | +VE | vMost-DILI-Concern | +VE | 
CCCCC(=O)N(Cc1ccc(-c2ccccc2-c2nnn[nH]2)cc1)[C@H](C(=O)O)C(C)C [valsartan] |  |  |  |  |  | Ro2 Hybrid HRM Score [1]: +VE; DILI +VE (5-8), DILI -VE (-4) ([2]; in vivo): +VE; DILI severity category ([2]; in vivo): vLess-DILI-Concern
O=C(O)COc1ccc(C(=O)c2cccs2)c(Cl)c1Cl [ticrynafen] | +VE | +VE |  |  | +VE | 
CNCCCC1c2ccccc2C=Cc2ccccc21 [protriptyline] | -VE | -VE | -VE | vNo-DILI-Concern | -VE | Cellular toxicity (3T3 cells) [4]: -VE; Combined Assay [4]: +VE; GSH adduct HML [4]: -VE; Hepatocyte cellular toxicity [4]: -VE; MitoTox 3T3 [4]: +VE; TDI CYP3A4 [4]: -VE; hBSEP inhibition [4]: -VE; In vivo DILI ([3]; ref Schadt 2015): -VE
CCOC(=O)Nc1ccc(NCc2ccc(F)cc2)nc1N [Flupirtine (Kv7 hepatotoxic@400)] | +VE | +VE |  |  | +VE | 
